Source: US20200247812A1 (Integral Biosciences Private Limited, priority 2018, published 2020)

Target: T1, ALK 5 (Homo sapiens, UniProt P36897)
T1 sequence (P36897 34-503): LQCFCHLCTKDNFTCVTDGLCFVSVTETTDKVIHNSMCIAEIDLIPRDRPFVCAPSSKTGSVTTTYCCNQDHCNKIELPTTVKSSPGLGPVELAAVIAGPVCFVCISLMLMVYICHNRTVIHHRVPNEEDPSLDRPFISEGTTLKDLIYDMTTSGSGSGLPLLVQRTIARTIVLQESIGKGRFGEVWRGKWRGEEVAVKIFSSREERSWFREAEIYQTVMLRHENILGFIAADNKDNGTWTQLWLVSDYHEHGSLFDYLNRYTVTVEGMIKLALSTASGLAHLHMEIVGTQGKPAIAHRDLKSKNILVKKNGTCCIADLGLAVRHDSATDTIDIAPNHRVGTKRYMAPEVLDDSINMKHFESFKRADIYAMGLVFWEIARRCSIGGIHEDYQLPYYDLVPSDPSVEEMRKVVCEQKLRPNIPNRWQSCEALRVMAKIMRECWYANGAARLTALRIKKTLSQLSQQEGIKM
Assay: In vitro kinase assay (ALK5 IC50, LanthaScreen Terbium labeled TR-FRET)
Assay type: biochemical
Conditions: TGF-β kinase 6 nM, ATP 10 μM, read-out: Enzyme Activity ALK 5 IC50
Experimental: Compounds of the invention were screened in an in vitro kinase assay against ALK 5, a members of the TGF-β family of Ser/Thr kinases. Standard kinase testing conditions and techniques were employed. IC50 values of compounds against TGF-ß kinase was determined by LanthaScreen™ Terbium Labeled TR-FRET assay. Kinase assays were performed in 1X kinase buffer (# PV6135, Invitrogen, Life Technologies Grand Island, N.Y.) where total reaction volume was 10 μL in low-volume 384-well plates (#4511, Corning). Serially diluted compounds (3-fold) were incubated with TGF-β kinase (6 nM) for 10 min, following which a mixture of ATP (10 μM) (# A1852, Sigma, St-Louis, Mo.) and fluorescent-PolyGT substrate (200 nM); Cat # PV3610, Invitrogen, Life Technologies Grand Island, N.Y.) was added and incubated in dark at room temperature for 1 h. After 1 h, 10 μL stop solution containing Terbium labeled antibody (4 nM; Cat # PV3529, Invitrogen, Life Technologies Grand Island, N.Y.) and EDTA (# E5134, Sigma, St-Louis, Mo.; 20 mM) in TR-FRET dilution buffer (Cat # PV3574, Invitrogen, Life Technologies Grand Island, N.Y.) was added. Readings were taken in a Synergy Neo Plate reader (BioTek, Winooski) at single excitation of 340 nm and Dual emission at 495 nm and 520 nm respectively.
The % activity of test samples was calculated as (Sample-Min)×100/(Max −Min). [Max: DMSO control, complete reaction with enzyme with DMSO and Min: No enzyme with DMSO]. Percent inhibition (100-% activity) was fitted to the “four-parameter logistic model” in XLfit for determination of IC50 values.

| IC50 [nM] | SMILES |
| --- | --- |
| 500 to 2000 | CC(C)c1[nH]c(=O)c(-c2ccsc2)cc1Nc1ccnc2ccncc12 [Compound 1.80, 5-((1,6-naphthyridin-4-yl)amino)-6-isopropyl-3-(thiophen-3-yl)pyridin-2(1H)-one] |
| 2000 to 5000 | CN(C)c1[nH]c(=O)c(-c2cc(Cl)ccc2F)cc1Nc1ccncc1F [Compound 1.41, 3-(5-chloro-2-fluorophenyl)-6-(dimethylamino)-5-((3-fluoropyridin-4-yl)amino)pyridin-2 (1H)-one] |
| ≤ 500 | COc1[nH]c(=O)c(-c2cc(Cl)ccc2F)cc1Nc1ccnc(NC(C)=O)c1 [Compound 1.75, N-(4-((5-(5-chloro-2-fluorophenyl)-2-methoxy-6-oxo-1,6-dihydropyridin-3-yl)amino)pyridin-2-yl)acetamide] |
| > 5000 | C[C@H](CO)NC(=O)c1cnccc1Nc1cc(-c2cc(Cl)ccc2F)c(=O)n2c1N(C)CC2 [Compound 1.23, (R)-4-((6-(5-chloro-2-fluorophenyl)-1-methyl-5-oxo-1,2,3,5-tetrahydroimidazo[1,2-a]pyridin-8-yl)amino)-N-(1-hydroxypropan-2-yl)nicotinamide] |
| 2000 to 5000 | CN(C)c1[nH]c(=O)c(-c2cc(Cl)ccc2F)cc1Nc1ccnc2cc(C(F)(F)F)ccc12 [Compound 1.33, 3-(5-chloro-2-fluorophenyl)-6-(dimethylamino)-5-((7-(trifluoromethyl)quinolin-4-yl)amino)pyridin-2(1H)-one] |
| 2000 to 5000 | CC(C)c1[nH]c(=O)c(-c2cc(Cl)ccc2F)cc1Nc1ccnc(NC2CC2)c1 [Compound 1.55, 3-(5-chloro-2-fluorophenyl)-5-((2-(cyclopropylamino)pyridin-4-yl)amino)-6-isopropylpyridin-2(1H)-one] |
| > 5000 | C[C@@H](O)CNC(=O)c1cnccc1Nc1cc(-c2cc(Cl)ccc2F)c(=O)n2c1N(C)CC2 [Compound 1.24, (R)-4-((6-(5-chloro-2-fluorophenyl)-1-methyl-5-oxo-1,2,3,5-tetrahydroimidazo[1,2-a]pyridin-8-yl)amino)-N-(2-hydroxypropyl)nicotinamide] |
| ≤ 500 | NC(=O)c1cnccc1Nc1cc(-c2cc(Cl)ccc2F)c(=O)[nH]c1C1CC1 [Compound 1.74, 4-((5-(5-chloro-2-fluorophenyl)-2-cyclopropyl-6-oxo-1,6-dihydropyridin-3-yl)amino)nicotinamide] |
| ≤ 500 | CC(=O)Nc1cc(Nc2cc(-c3ccc(F)c(C)c3)c(=O)[nH]c2C(C)C)ccn1 [Compound 1.83, N-(4-((5-(4-fluoro-3-methylphenyl)-2-isopropyl-6-oxo-1,6-dihydropyridin-3-yl)amino)pyridin-2-yl)acetamide] |
| ≤ 500 | CSc1[nH]c(=O)c(-c2cc(Cl)ccc2F)cc1Nc1ccnc2ccncc12 [Compound 1.36, 5-((1,6-naphthyridin-4-yl)amino)-3-(5-chloro-2-fluorophenyl)-6-(methylthio)pyridin-2(1H)-one] |
| 500 to 2000 | C[C@@H](CO)NC(=O)c1cnccc1Nc1cc(-c2cc(Cl)ccc2F)c(=O)n2c1N(C)CCC2 [Compound 1.21, (S)-4-((7-(5-chloro-2-fluorophenyl)-1-methyl-6-oxo-1,3,4,6-tetrahydro-2H-pyrido[1,2-a]pyrimidin-9-yl)amino)-N-(1-hydroxypropan-2-yl)nicotinamide] |
| > 5000 | C[C@@H](O)CNC(=O)c1cnccc1Nc1cc(-c2cc(Cl)ccc2F)c(=O)n2c1N(C)CCC2 [Compound 1.26, (R)-4-((7-(5-chloro-2-fluorophenyl)-1-methyl-6-oxo-1,3,4,6-tetrahydro-2H-pyrido[1,2-a]pyrimidin-9-yl)amino)-N-(2-hydroxypropyl)nicotinamide] |
| ≤ 500 | CC(C)c1[nH]c(=O)c(-c2cc(Cl)ccc2F)cc1Nc1c(F)cnc2[nH]ccc12 [Compound 1.57, 3-(5-chloro-2-fluorophenyl)-5-((5-fluoro-1H-pyrrolo[2,3-b]pyridin-4-yl)amino)-6-isopropylpyridin-2(1H)-one] |
| 500 to 2000 | COc1[nH]c(=O)c(-c2cc(Cl)ccc2F)cc1Nc1ccnc2ccncc12 [Compound 1.73, 5-((1,6-naphthyridin-4-yl)amino)-3-(5-chloro-2-fluorophenyl)-6-methoxypyridin-2(1H)-one] |
| 2000 to 5000 | CN(C)c1[nH]c(=O)c(-c2cc(Cl)ccc2F)cc1Nc1ccncc1C(=O)NC1CC1 [Compound 1.30, 4-((5-(5-chloro-2-fluorophenyl)-2-(dimethylamino)-6-hydroxypyridin-3-yl)amino)-N-cyclopropylnicotinamide] |
| 2000 to 5000 | CC(O)CNC(=O)c1cnccc1Nc1c[nH]c(=O)c(-c2cc(Cl)ccc2F)c1 (stereo not shown) [Compound 1.1, 4-((5-(5-chloro-2-fluorophenyl)-6-oxo-1,6-dihydropyridin-3-yl)amino)-N-(2-hydroxypropyl)nicotinamide] |
| 500 to 2000 | CC(C)c1[nH]c(=O)c(-c2ccc(F)c(Cl)c2)cc1Nc1ncnc2c1CC(=O)N2 [Compound 1.85, 4-((5-(3-chloro-4-fluorophenyl)-2-isopropyl-6-oxo-1,6-dihydropyridin-3-yl)amino)-5,7-dihydro-6H-pyrrolo[2,3-d]pyrimidin-6-one] |
| ≤ 500 | CCc1[nH]c(=O)c(-c2ccc(F)c(Cl)c2)cc1Nc1ccnc2ccncc12 [Compound 1.87, 5-((1,6-naphthyridin-4-yl)amino)-3-(3-chloro-4-fluorophenyl)-6-ethylpyridin-2(1H)-one] |
| ≤ 500 | CN1CCn2c1c(Nc1ccnc3[nH]ccc13)cc(-c1cc(Cl)ccc1F)c2=O [Compound 1.18, 8-((1H-pyrrolo[2,3-b]pyridin-4-yl)amino)-6-(5-chloro-2-fluorophenyl)-1-methyl-2,3-dihydroimidazo[1,2-a]pyridin-5(1H)-one] |
| > 5000 | CN(C)c1[nH]c(=O)c(-c2cc(Cl)ccc2F)cc1Nc1ccncc1C(=O)NC(CO)CO [Compound 1.11] |
| ≤ 500 | CCc1[nH]c(=O)c(-c2cc(Cl)ccc2F)cc1Nc1ccncc1C(=O)NC [Compound 1.72, 4-((5-(5-chloro-2-fluorophenyl)-2-ethyl-6-oxo-1,6-dihydropyridin-3-yl)amino)-N-methylnicotinamide] |
| 2000 to 5000 | C[C@H](O)CNC(=O)c1cnccc1Nc1cc(-c2cc(Cl)ccc2F)c(=O)[nH]c1N(C)C [Compound 1.9, (S)-4-((5-(5-chloro-2-fluorophenyl)-2-(dimethylamino)-6-hydroxypyridin-3-yl)amino)-N-(2-hydroxypropyl)nicotinamide] |
| 500 to 2000 | CC(=O)Nc1cc(N(C)c2cc(-c3cc(Cl)ccc3F)c(=O)[nH]c2C(C)C)ccn1 [Compound 1.66, N-(4-((5-(5-chloro-2-fluorophenyl)-2-isopropyl-6-oxo-1,6-dihydropyridin-3-yl)(methyl)amino)pyridin-2-yl)acetamide] |
| ≤ 500 | CC(C)c1[nH]c(=O)c(-c2cc(Cl)ccc2F)cc1Nc1ccnc(NC(=O)CN2CCCC2)c1 [Compound 1.47, N-(4-((5-(5-chloro-2-fluorophenyl)-2-isopropyl-6-oxo-1,6-dihydropyridin-3-yl)amino)pyridin-2-yl)-2-(pyrrolidin-1-yl)acetamide] |
| > 5000 | C[C@H](O)CNC(=O)c1cnccc1Nc1cc(-c2cc(Cl)ccc2F)c(=O)n(C)c1 [Compound 1.7, (S)-4-((5-(5-chloro-2-fluorophenyl)-1-methyl-6-oxo-1,6-dihydropyridin-3-yl)amino)-N-(2-hydroxypropyl)nicotinamide] |
| > 5000 | Cc1cccc(-c2cc(Nc3ccncc3C(=O)NC[C@H](C)O)c(N(C)C)[nH]c2=O)n1 [Compound 1.27, (S)-4-((6′-(dimethylamino)-6-methyl-2′-oxo-1′,2′-dihydro-[2,3′-bipyridin]-5′-yl)amino)-N-(2-hydroxypropyl)nicotinamide] |
| > 5000 | CN(C)c1[nH]c(=O)c(-c2cc(Cl)ccc2F)cc1Nc1ccncc1C(F)(F)F [Compound 1.15, 3-(5-chloro-2-fluorophenyl)-6-(dimethylamino)-5-((3-(trifluoromethyl)pyridin-4-yl)amino)pyridin-2(1H)-one] |
| 2000 to 5000 | Cc1cc(-c2cc(Nc3ncnc4c3CC(=O)N4)c(C(C)C)[nH]c2=O)ccc1F [Compound 1.82, 4-((5-(4-fluoro-3-methylphenyl)-2-isopropyl-6-oxo-1,6-dihydropyridin-3-yl)amino)-5,7-dihydro-6H-pyrrolo[2,3-d]pyrimidin-6-one] |
